From PubChem BioAssay AID330 (DTP/NCI, 2004)
Several values for one entry are separate records, joined by “and”; a condition that tells them apart may be missing. Equal entries are not always repeated. Inconclusive results and toxic doses are left out. How the source made its calls: active means survival T/C of 150% or more; inactive means T/C below 125% in these data.

System: P388 leukemia ip, CD2F1 mice, survival T/C
Assay: NCI In Vivo Anticancer Drug Screen. Data for tumor model P388 Leukemia (intraperitoneal) in CD2F1 (CDF1) mice
Conditions: endpoint: median survival time, higher = longer survival
Method in brief: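 Mice carrying the transplanted tumor received test compound or vehicle. Survival was recorded in each group, and the value is the treated-group measurement divided by that of the vehicle-treated control group.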

[1] = dose: 50.0 mg/kg/injection, schedule: Q01DX005 (ip), vehicle: saline with Tween-80
[2] = dose: 100.0 mg/kg/injection, schedule: Q01DX005 (ip), vehicle: saline with Tween-80
[3] = dose: 200.0 mg/kg/injection, schedule: Q01DX005 (ip), vehicle: saline with Tween-80
[4] = dose: 6.25 mg/kg/injection, schedule: Q01DX005 (ip), vehicle: saline with Tween-80
[5] = dose: 12.5 mg/kg/injection, schedule: Q01DX005 (ip), vehicle: saline with Tween-80
[6] = dose: 25.0 mg/kg/injection, schedule: Q01DX005 (ip), vehicle: saline with Tween-80
[7] = dose: 50.0 mg/kg/injection, schedule: Q01DX005 (ip), vehicle: Klucel (hydroxypropylcellulose) (HPC)
[8] = dose: 100.0 mg/kg/injection, schedule: Q01DX005 (ip), vehicle: Klucel (hydroxypropylcellulose) (HPC)
[9] = dose: 200.0 mg/kg/injection, schedule: Q01DX005 (ip), vehicle: Klucel (hydroxypropylcellulose) (HPC)
[10] = dose: 50.0 mg/kg/injection, schedule: Q01DX009 (ip), vehicle: saline with Tween-80
[11] = dose: 100.0 mg/kg/injection, schedule: Q01DX009 (ip), vehicle: saline with Tween-80
[12] = dose: 200.0 mg/kg/injection, schedule: Q01DX009 (ip), vehicle: saline with Tween-80
[13] = dose: 100.0 mg/kg/injection, schedule: Q04DX003 (ip), vehicle: saline with Tween-80
[14] = dose: 200.0 mg/kg/injection, schedule: Q04DX003 (ip), vehicle: saline with Tween-80
[15] = dose: 25.0 mg/kg/injection, schedule: Q01DX009 (ip), vehicle: saline with Tween-80

Measured: T/C

O=C(CCCCCCCC(=O)Nc1ccc2[nH]c3ccccc3c(=O)c2c1)Nc1ccc2[nH]c3ccccc3c(=O)c2c1
inactive: [1] 107 % of control | [2] 107 % of control | [3] 106 % of control

CSC(SC)=C1C(=O)NC(Cc2ccccc2)C1=O (configuration not stated)
inactive: [4] 104 % of control | [5] 112 % of control | [6] 119 % of control

Cc1ccc2c3nc4ccccc4c-3csc2c1
inactive: dose: 18.0 mg/kg/injection, schedule: Q01DX009 (ip), vehicle: saline 104 % of control | dose: 27.5 mg/kg/injection, schedule: Q01DX009 (ip), vehicle: saline 89 % of control

COc1ccc(C2C3CCCC(C(c4ccc(OC)cc4)N2C)C32NC(=O)NC2=O)cc1 (configuration not stated)
inactive: dose: 60.0 mg/kg/injection, schedule: Q01DX005 (ip), vehicle: saline with Tween-80 90 % of control | dose: 120.0 mg/kg/injection, schedule: Q01DX005 (ip), vehicle: saline with Tween-80 90 % of control | dose: 240.0 mg/kg/injection, schedule: Q01DX005 (ip), vehicle: saline with Tween-80 91 % of control

O=S=C(c1ccccc1)N(Cc1ccccc1)Cc1ccccc1
inactive: dose: 25.0 mg/kg/injection, schedule: Q01DX009 (ip), vehicle: saline 96 % of control | dose: 50.0 mg/kg/injection, schedule: Q01DX009 (ip), vehicle: saline 97 % of control | dose: 100.0 mg/kg/injection, schedule: Q01DX009 (ip), vehicle: saline 97 % of control

O=C(OCCN1C(=O)C2C3C=CC(C3)C2C1=O)C1C2C=CC(C2)C1C(=O)OCCN1C(=O)C2C3C=CC(C3)C2C1=O (configuration not stated)
inactive: dose: 50.0 mg/kg/injection, schedule: Q01DX005 (ip), vehicle: saline + Tween-80 + alcohol 100 % of control | dose: 100.0 mg/kg/injection, schedule: Q01DX005 (ip), vehicle: saline + Tween-80 + alcohol 105 % of control | dose: 200.0 mg/kg/injection, schedule: Q01DX005 (ip), vehicle: saline + Tween-80 + alcohol 105 % of control

CC1=CC(C)(C)Nc2ccccc21
inactive: dose: 100.0 mg/kg/injection, schedule: Q01DX009 (ip), vehicle: Klucel (hydroxypropylcellulose) (HPC) 108 % of control | dose: 200.0 mg/kg/injection, schedule: Q01DX009 (ip), vehicle: Klucel (hydroxypropylcellulose) (HPC) 114 % of control | dose: 400.0 mg/kg/injection, schedule: Q01DX009 (ip), vehicle: Klucel (hydroxypropylcellulose) (HPC) 110 % of control

CC1=C(C)C(N2CCOCC2)CS(=O)(=O)O1 (configuration not stated)
inactive: [7] 109 % of control | [8] 101 % of control

CN=NN/C1=C/CCCCCC1
inactive: dose: 15.0 mg/kg/injection, schedule: Q01DX005 (ip), vehicle: Klucel + Tween-80 105 % of control | dose: 30.0 mg/kg/injection, schedule: Q01DX005 (ip), vehicle: Klucel + Tween-80 113 % of control | dose: 60.0 mg/kg/injection, schedule: Q01DX005 (ip), vehicle: Klucel + Tween-80 111 % of control and 117 % of control

Cc1ccc(S(=O)(=O)NC(=O)n2ccnc2C)cc1
inactive: [7] 97 % of control | [8] 100 % of control | [9] 104 % of control

O=S1C2CCC(Br)C1CCC2Br (configuration not stated)
inactive: dose: 0.39 mg/kg/injection, schedule: Q04DX002 (ip), vehicle: saline + alcohol 105 % of control | dose: 0.78 mg/kg/injection, schedule: Q04DX002 (ip), vehicle: saline + alcohol 100 % of control | dose: 1.56 mg/kg/injection, schedule: Q04DX002 (ip), vehicle: saline + alcohol 101 % of control

CCCCCCn1[nH]nc(C(=O)OC)c1=O (tested in a mixture with another compound)
inactive: [7] 94 % of control | [8] 87 % of control | [9] 92 % of control

C=C(C)C(=O)OCCN(C)C (tested in a mixture with another compound)
inactive: [10] 100 % of control | [11] 100 % of control | [12] 100 % of control

Cc1ccc2c(c1)CN(C13CC4CC(CC(C4)C1)C3)CO2
inactive: dose: 66.0 mg/kg/injection, schedule: Q04DX003 (ip), vehicle: saline with Tween-80 95 % of control | [13] 100 % of control | dose: 150.0 mg/kg/injection, schedule: Q04DX003 (ip), vehicle: saline with Tween-80 100 % of control | [14] 105 % of control | dose: 400.0 mg/kg/injection, schedule: Q04DX003 (ip), vehicle: saline with Tween-80 115 % of control

O=C(O)CN(CC(=O)O)Cc1cc2c(c(O)c1O)C(=O)c1ccccc1C2=O
inactive: dose: 6.25 mg/kg/injection, schedule: Q01DX009 (ip), vehicle: saline with Tween-80 97 % of control | dose: 12.5 mg/kg/injection, schedule: Q01DX009 (ip), vehicle: saline with Tween-80 101 % of control | [15] 93 % of control | [11] 100 % of control | [12] 100 % of control

CNC(=S)/N=c1/sc([N+](=O)[O-])c(C)n1C
inactive: dose: 1.87 mg/kg/injection, schedule: Q01DX005 (ip), vehicle: saline with Tween-80 94 % of control | dose: 3.75 mg/kg/injection, schedule: Q01DX005 (ip), vehicle: saline with Tween-80 92 % of control | dose: 7.5 mg/kg/injection, schedule: Q01DX005 (ip), vehicle: saline with Tween-80 99 % of control and 97 % of control | dose: 15.0 mg/kg/injection, schedule: Q01DX005 (ip), vehicle: saline with Tween-80 95 % of control

C=C(C)CC1(CC)C(=O)NC(=S)NC1=O
inactive: dose: 50.0 mg/kg/injection, schedule: Q04DX003 (ip), vehicle: saline with Tween-80 104 % of control | [13] 104 % of control | [14] 86 % of control

CCOC(=O)Nc1nccs1
inactive: [15] 108 % of control | [10] 103 % of control | [11] 102 % of control | [12] 108 % of control

COc1ccc(N=Nc2ccc(N)c3cccnc23)c(OC)c1
inactive: dose: 100.0 mg/kg/injection, schedule: Q04DX002 (ip), vehicle: saline with Tween-80 97 % of control | dose: 200.0 mg/kg/injection, schedule: Q04DX002 (ip), vehicle: saline with Tween-80 106 % of control | dose: 400.0 mg/kg/injection, schedule: Q04DX002 (ip), vehicle: saline with Tween-80 92 % of control

CCCCCCCCCCCC(=O)OCCN(C=O)C[n+]1ccccc1
inactive: dose: 25.0 mg/kg/injection, schedule: Q04DX002 (ip), vehicle: saline 98 % of control | dose: 50.0 mg/kg/injection, schedule: Q04DX002 (ip), vehicle: saline 96 % of control | dose: 100.0 mg/kg/injection, schedule: Q04DX002 (ip), vehicle: saline 91 % of control

CC(C)=CCC/C(C)=C\CN(C)C
inactive: dose: 6.25 mg/kg/injection, schedule: Q04DX002 (ip), vehicle: saline with Tween-80 100 % of control | dose: 12.5 mg/kg/injection, schedule: Q04DX002 (ip), vehicle: saline with Tween-80 103 % of control | dose: 25.0 mg/kg/injection, schedule: Q04DX002 (ip), vehicle: saline with Tween-80 94 % of control

CSCCCNC(=O)c1csc(-c2csc(CCNC(=O)[C@@H](NSc3ccccc3[N+](=O)[O-])[C@@H](C)O)n2)n1
inactive: [4] 100 % of control | [5] 104 % of control | [6] 95 % of control | [1] 87 % of control | [3] 87 % of control

CC1OP(=S)(S)OC1C (configuration not stated)
inactive: dose: 50.0 mg/kg/injection, schedule: Q01DX005 (ip), vehicle: saline 95 % of control | dose: 100.0 mg/kg/injection, schedule: Q01DX005 (ip), vehicle: saline 100 % of control

Nc1cc(N2C(=O)c3ccccc3C2=O)ccc1Cl
inactive: [1] 109 % of control | [2] 109 % of control | [3] 100 % of control
